From ChEMBL document CHEMBL1201862, “PubChem BioAssay data set” (2004)
Calls of active or inactive are those of the source.

Tests used:
Streptococcus = assay: Group A Streptococcus viability loss, dose response, counter-screen for streptokinase expression inhibitor project, luminescence, BacTiterGlo (AID 1915); assay type: functional, organism-based;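 note: potency for reduction of bacterial viability or growth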
[1] = inhibitors of SNCA 5'UTR-driven reporter translation, confirmation, H4 neuroglioma cells, luminescence (AID 1988); assay type: functional, cell-based
[2] = Luminescence Cell-Based Dose Response HTS to Identify Inhibitors of 5'UTR Stem-Loop Driven Prion Protein mRNA Translation in H4 Neuroglioblastoma Cells. [Related pubchem assays: 1827 (Project Summary), 1813 (Primary HTS)]; assay type: functional
[3] = system: Streptococcus sp. 'group A'; assay: growth inhibition of control SK(-) GAS strain, dose response, counter-screen for streptokinase expression inhibitor project, luminescence, kanamycin, BacTiterGlo, confirmation (AID 1900); assay type: functional, organism-based
Streptokinase A = molecular target: T1, Streptokinase A (Streptococcus pyogenes serotype M1, UniProt P10520); assay: S. pyogenes streptokinase expression inhibitors, potency, dose response, plasminogen activation absorbance, OD405 (AID 1914); assay type: functional, Streptococcus pyogenes M1 GAS;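 note: secreted streptokinase activity via plasminogen activation per viability signal from cell pellet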
T1 sequence (P10520 whole entry): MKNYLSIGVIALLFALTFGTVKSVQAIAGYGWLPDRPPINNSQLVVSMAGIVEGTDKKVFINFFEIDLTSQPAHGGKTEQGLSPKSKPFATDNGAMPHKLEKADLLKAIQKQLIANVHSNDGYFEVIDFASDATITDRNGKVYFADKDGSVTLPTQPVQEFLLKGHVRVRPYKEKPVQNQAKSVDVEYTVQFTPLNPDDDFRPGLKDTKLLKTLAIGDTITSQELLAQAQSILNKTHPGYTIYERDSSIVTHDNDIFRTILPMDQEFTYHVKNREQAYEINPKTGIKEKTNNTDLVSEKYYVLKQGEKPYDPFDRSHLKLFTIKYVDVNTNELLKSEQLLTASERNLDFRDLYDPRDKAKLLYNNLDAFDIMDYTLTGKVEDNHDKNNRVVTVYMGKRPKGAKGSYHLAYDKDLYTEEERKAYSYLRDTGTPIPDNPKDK

Cytochrome P450 1A2 = molecular target: T2, Cytochrome P450 1A2 (Homo sapiens, UniProt P05177);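 note: PubChem cytochrome P450 panel assay, CYP1A2 panel member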
T2 sequence (P05177 whole entry): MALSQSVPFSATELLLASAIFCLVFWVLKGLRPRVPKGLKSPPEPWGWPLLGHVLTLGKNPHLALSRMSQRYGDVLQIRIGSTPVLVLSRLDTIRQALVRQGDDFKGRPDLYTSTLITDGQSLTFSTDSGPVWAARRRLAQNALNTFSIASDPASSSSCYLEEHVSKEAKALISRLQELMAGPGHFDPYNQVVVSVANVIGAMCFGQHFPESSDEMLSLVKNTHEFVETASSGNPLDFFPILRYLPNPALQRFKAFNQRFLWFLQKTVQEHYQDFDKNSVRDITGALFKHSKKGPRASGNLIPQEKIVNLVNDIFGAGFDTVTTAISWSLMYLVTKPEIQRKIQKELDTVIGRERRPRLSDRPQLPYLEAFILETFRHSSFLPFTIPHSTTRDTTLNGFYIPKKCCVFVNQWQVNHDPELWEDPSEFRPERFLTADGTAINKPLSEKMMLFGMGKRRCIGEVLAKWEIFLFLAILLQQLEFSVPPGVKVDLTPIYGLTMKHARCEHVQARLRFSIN

Cytochrome P450 2C19 = Cytochrome P450 2C19 (Homo sapiens, UniProt P33261); assay: Cytochrome panel assay with activity outcomes. Panel member name: p450-cyp2c19 Compounds with AC50 equal or less than 10 uM are considered active; assay type: functional
Sequence of Cytochrome P450 2C19 (P33261 whole entry): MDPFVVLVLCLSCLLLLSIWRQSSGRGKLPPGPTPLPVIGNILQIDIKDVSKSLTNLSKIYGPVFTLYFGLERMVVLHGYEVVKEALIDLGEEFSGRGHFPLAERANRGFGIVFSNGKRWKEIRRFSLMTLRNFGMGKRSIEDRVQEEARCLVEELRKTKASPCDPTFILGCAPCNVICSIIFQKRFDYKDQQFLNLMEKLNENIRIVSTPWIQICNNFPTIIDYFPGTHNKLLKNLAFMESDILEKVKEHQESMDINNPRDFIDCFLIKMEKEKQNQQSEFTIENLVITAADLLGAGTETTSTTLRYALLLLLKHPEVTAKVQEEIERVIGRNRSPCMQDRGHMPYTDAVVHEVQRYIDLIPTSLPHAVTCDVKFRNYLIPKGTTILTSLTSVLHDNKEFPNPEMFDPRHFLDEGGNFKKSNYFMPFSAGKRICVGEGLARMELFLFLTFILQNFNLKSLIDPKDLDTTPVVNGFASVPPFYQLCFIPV

[4] = molecular target: T3, Heat shock factor protein 1 (Mus musculus, UniProt P38532); assay: inhibition of MG132-induced HSE-luciferase signal, confirmation, cell-based, NIH3T3, luminescence, dose retest (AID 2382); assay type: functional;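 note: NIH3T3 fibroblasts with HSF1-driven luciferase reporter stressed by proteasome inhibitor MG132; luminescence from HSF1-driven luciferase expression after 8 hours of MG132 stress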
T3 sequence (P38532 whole entry): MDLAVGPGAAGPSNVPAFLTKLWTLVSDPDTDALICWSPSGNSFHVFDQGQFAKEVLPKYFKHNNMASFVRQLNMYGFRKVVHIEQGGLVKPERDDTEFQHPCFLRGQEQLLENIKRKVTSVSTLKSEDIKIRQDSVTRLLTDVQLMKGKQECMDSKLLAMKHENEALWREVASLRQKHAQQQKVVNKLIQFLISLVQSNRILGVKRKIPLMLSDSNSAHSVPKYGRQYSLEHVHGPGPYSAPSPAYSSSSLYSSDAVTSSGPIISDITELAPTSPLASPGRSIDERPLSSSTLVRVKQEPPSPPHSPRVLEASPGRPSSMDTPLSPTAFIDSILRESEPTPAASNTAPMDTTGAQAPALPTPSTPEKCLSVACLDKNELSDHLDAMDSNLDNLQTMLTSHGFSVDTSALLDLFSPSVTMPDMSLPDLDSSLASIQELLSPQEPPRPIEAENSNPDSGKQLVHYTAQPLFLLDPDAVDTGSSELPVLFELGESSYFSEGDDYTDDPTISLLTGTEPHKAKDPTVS

[5] = molecular target: T4, Corticotropin-releasing factor receptor 2/Corticotropin-releasing factor-binding protein (Homo sapiens, UniProt P24387+Q13324); assay: activators of CRF receptor 2 with binding protein – uHTS hits, confirmation (AID 602473); assay type: functional; conditions: read-out: EC50_Mean
T4 sequence (Q13324 whole entry): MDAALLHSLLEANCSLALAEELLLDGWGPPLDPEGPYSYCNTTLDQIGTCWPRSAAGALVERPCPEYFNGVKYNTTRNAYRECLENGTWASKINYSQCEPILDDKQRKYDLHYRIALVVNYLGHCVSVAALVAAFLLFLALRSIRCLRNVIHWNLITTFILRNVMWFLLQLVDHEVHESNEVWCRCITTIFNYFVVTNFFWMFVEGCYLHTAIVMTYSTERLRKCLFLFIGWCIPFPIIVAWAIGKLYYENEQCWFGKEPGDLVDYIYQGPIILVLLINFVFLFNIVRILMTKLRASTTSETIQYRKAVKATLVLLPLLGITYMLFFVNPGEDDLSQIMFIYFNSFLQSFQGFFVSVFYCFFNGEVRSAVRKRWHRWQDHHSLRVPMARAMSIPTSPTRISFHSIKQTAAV
T4 sequence (P24387 whole entry): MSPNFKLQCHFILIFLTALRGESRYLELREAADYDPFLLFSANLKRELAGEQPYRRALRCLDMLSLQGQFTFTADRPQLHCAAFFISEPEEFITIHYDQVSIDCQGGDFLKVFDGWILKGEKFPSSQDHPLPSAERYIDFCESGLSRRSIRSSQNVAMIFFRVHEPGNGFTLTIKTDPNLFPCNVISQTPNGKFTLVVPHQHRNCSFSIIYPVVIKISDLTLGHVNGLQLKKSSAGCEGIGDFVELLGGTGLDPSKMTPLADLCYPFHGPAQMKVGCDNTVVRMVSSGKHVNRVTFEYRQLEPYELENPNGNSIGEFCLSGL

## COc1ccc(Br)cc1/C=C/c1ccc2cccc(O)c2n1
Streptococcus
  EC50: 6.48 µM (active)
[1]
  EC50: > 120 µM (not active)
[2]
  EC50: 13.4 µM (active)
[3]
  EC50: 0.246 µM (active)
Streptokinase A
  EC50: > 150 µM (not active)

## COc1ccc(C(=O)Nc2c3c(nn2-c2ccc([N+](=O)[O-])cc2)CS(=O)(=O)C3)cc1
Streptococcus
  EC50: > 150 µM (not active)
[3]
  EC50: 16.1 µM (active)
Streptokinase A
  EC50: > 150 µM (not active)

## CN1CCN(c2ncc3nc(-c4cn(C)c5ccccc45)c(=O)n(-c4ccccc4)c3n2)CC1
Cytochrome P450 1A2
  AC50: 15.8 µM (inconclusive)

## COc1ccc(NC(=O)CSc2ccc3nnc(-c4ccccn4)n3n2)c(OC)c1
Streptococcus
  EC50: > 150 µM (not active)
[3]
  EC50: > 150 µM (not active)
Streptokinase A
  EC50: > 150 µM (not active)

## CN(C)CCOC(=O)C1(c2ccccc2)CCOCC1
Cytochrome P450 2C19; read-out: AC50
  AC50: 20 µM (inconclusive)

## C=CCn1c(Oc2ccc(C(=O)OC)cc2)nc2c1c(=O)n(C)c(=O)n2C
Streptococcus
  EC50: > 150 µM (not active)
[3]
  EC50: 12.4 µM (active)
Streptokinase A
  EC50: > 150 µM (not active)

## CCCOc1ccc2cc(C(=O)NCc3ccccc3)c(=O)oc2c1
[4]
  EC50: 42 µM (active)

## COC(=O)[C@@]1(Cc2ccc(F)cc2)[C@H]2c3cc(C(=O)N(C)C)n(Cc4c(CO)ncc(C)c4O)c3C[C@H]2CN1C(=O)c1ccccc1
Cytochrome P450 2C19; read-out: AC50
  AC50: 25.1 µM (inconclusive)
Cytochrome P450 1A2
  AC50: 25.1 µM (inconclusive)

## CCOC(=O)c1nnc(O)c2ccccc12
[4]
  EC50: > 195 µM (not active)

## COc1ccc(/C=N/NC(=O)Nc2cccc3nsnc23)cc1OC
[4]
  EC50: 9.51 µM (active)

## CCOc1ccc(C)cc1S(=O)(=O)NC1CCCCCC1
Streptococcus
  EC50: > 150 µM (not active)
[3]
  EC50: > 150 µM (not active)
Streptokinase A
  EC50: > 150 µM (not active)

## COc1ccc(Nc2nc(Nc3ccc(OC)cc3)nc(-n3[nH]c(=O)c(C)c3C)n2)cc1
[4]
  EC50: 22.3 µM (active)

## Cc1ccc(F)cc1NC(=O)CCNC(=O)c1ccc([N+](=O)[O-])cc1
[4]
  EC50: > 195 µM (not active)

## Cc1cccc(NC(=O)C(=O)NNC(=O)c2ccc(C(C)(C)C)cc2)c1
Streptococcus
  EC50: 25.4 µM (active)
[3]
  EC50: 9.34 µM (active)
Streptokinase A
  EC50: > 150 µM (not active)

## N=c1ccn2c(n1)O[C@H]1[C@@H](OP(=O)(O)O)[C@H](CO)O[C@H]12
Cytochrome P450 2C19
  AC50: inconclusive

## CCCCn1c(=N)c(S(=O)(=O)c2ccc(Br)cc2)cc2c(=O)n3cccc(C)c3nc21
[5]
  EC50: > 53 µM (inactive)

## CC1CC(C)CN(C2CCCCC2NS(=O)(=O)c2ccc(Cl)cc2)C1 (configuration not stated)
[5]
  EC50: 6.53 µM (active)

## CCOC(=O)c1ccc(OC(=O)CCCCCNC(=N)N)cc1 [GABEXATE]
Cytochrome P450 1A2
  AC50: 15.8 µM (inconclusive)

## CC(=O)Nc1cccc(-n2c(=O)n(Cc3ccccc3)c(=O)c3[nH]cnc32)c1
[4]
  EC50: > 195 µM (not active)

## CCCn1c(N)c(C(=O)CSc2nc3ccccc3c(=O)n2Cc2ccccc2)c(=O)[nH]c1=O
[4]
  EC50: > 195 µM (not active)

## Cn1c(=O)c2c(nc(Sc3ncnn3CC(=O)N3CCOCC3)n2C)n(C)c1=O
[4]
  EC50: > 195 µM (not active)

## O=C(O)c1ccc(N2C=[N+]3C(=Nc4ccccc43)C2)cc1
Cytochrome P450 1A2
  AC50: 5.01 µM (inconclusive)

## CCOC(=O)N1CCN(CC(O)c2ccc3cc[nH]c3c2)CC1 (configuration not stated)
[5]
  EC50: > 53 µM (inactive)

## O=C(CCCC(=O)N(c1ccc2c(c1)OCCO2)C(C(=O)NC1CCCCC1)c1ccc(Cl)cc1)Nc1ccccn1 (configuration not stated)
[4]
  EC50: > 195 µM (not active)

## CCOC(=O)N1CCN(c2c(O)nc3ccc(Cl)cc3c2-c2ccccc2)CC1
Cytochrome P450 1A2
  AC50: 0.158 µM (inconclusive)

## COC(=O)c1cn(NC(=O)CCC2CCCC2)c(=O)c2ccccc12
[4]
  EC50: > 195 µM (not active)

## O=C(N[C@@H](c1ccccc1)[C@@H]1C[C@H]1C(=O)O)OCc1ccccc1
Cytochrome P450 1A2
  AC50: 20 µM (inconclusive)

## Cn1c(Oc2ccccc2NCc2cc(Br)ccc2O)cc(=O)n(C)c1=O
Streptococcus
  EC50: 16.1 µM (active)
[3]
  EC50: 6.42 µM (active)
Streptokinase A
  EC50: > 150 µM (not active)

## CN1C(=O)C(=Cc2ccc(N3CCOCC3)o2)C(=O)N(C)C1=S
[5]
  EC50: 7.57 µM (active)

## Cc1c(-n2cc(C(=O)c3cc(F)ccc3O)cc(C#N)c2=O)c(=O)n(-c2ccccc2)n1C
[5]
  EC50: > 53 µM (inactive)

## O=C1c2cccnc2C(=O)N1Cc1ccc(F)cc1
Cytochrome P450 1A2
  AC50: 17.8 µM (inconclusive)

## O=C(O)c1csc(-c2ccccc2)n1
[4]
  EC50: > 195 µM (not active)

## CC(=O)c1cccc(NC(=O)CN2C(S)=NC(C)(C)CC2C)c1 (configuration not stated)
[4]
  EC50: > 195 µM (not active)

## COC(=O)[C@@]12CCCN1[C@H](c1ccc(-c3cccc(Cl)c3)c(OC)c1)[C@H]1C(=O)N(C)C(=O)[C@H]12
Streptococcus
  EC50: > 150 µM (not active)
[3]
  EC50: 105 µM (active)
Streptokinase A
  EC50: > 150 µM (not active)

## COc1ccc(NS(=O)(=O)c2ccc(C(=O)N3CCC(C)CC3)cc2)cc1
[5]
  EC50: 9.87 µM (active)

## Cc1ccc(C(=O)N2CCOCC2)cc1S(=O)(=O)N1CCOCC1
Streptococcus
  EC50: > 150 µM (not active)
[3]
  EC50: > 150 µM (not active)
Streptokinase A
  EC50: > 150 µM (not active)

## COc1ccccc1CNc1ncnc2ccc(-c3ccccc3CN(C)C)cc12
Cytochrome P450 1A2
  AC50: 15.8 µM (inconclusive)

## Cc1ccc(NC(=S)NC2CCSc3ccccc32)cc1C (configuration not stated)
Streptokinase A
  EC50: 24.3 µM (active)

## CNC(=O)[C@H](C)[C@H]1C[C@]1(C)[C@H](NC(=O)OCc1ccccc1)c1ccccc1
Cytochrome P450 1A2
  AC50: 20 µM (inconclusive)

## COc1ccc(-n2nc3ccccc3n2)cc1
[4]
  EC50: > 195 µM (not active)

## Cc1cccc(-c2ocnc2C(=O)N2CCN(C(=O)c3cccs3)CC2)c1
[4]
  EC50: > 195 µM (not active)

## Clc1ccc(C2C3=C(Nc4ncnn42)c2ccccc2CC3)cc1 (configuration not stated)
Streptococcus
  EC50: 43.2 µM (active)
[3]
  EC50: 7.5 µM (active)
Streptokinase A
  EC50: > 150 µM (not active)

## CN(C)c1ccc(-c2ccc3ncnc(N4CCNCC4)c3c2)cc1
Cytochrome P450 2C19; read-out: AC50
  AC50: 25.1 µM (inconclusive)

## C#CCCCO/N=C1/C[C@@H](O)[C@@H](O)[C@@H]2[C@@H]3C(=O)N(Cc4ccccc4)C(=O)[C@H]3CC[C@@H]12
Cytochrome P450 2C19
  AC50: inconclusive
